This is an account of results in BindingDB's records for doi:10.1111/j.1476-5381.1995.tb14977.x (Syntex Discovery Research, 1995).

The target of experiment [1] is 5-hydroxytryptamine receptor 2B (Homo sapiens, UniProt P41595).
Experiment [2] concerns the target T1, 5-hydroxytryptamine receptor 2C (Homo sapiens, UniProt P28335).
T1 sequence (P28335 whole entry): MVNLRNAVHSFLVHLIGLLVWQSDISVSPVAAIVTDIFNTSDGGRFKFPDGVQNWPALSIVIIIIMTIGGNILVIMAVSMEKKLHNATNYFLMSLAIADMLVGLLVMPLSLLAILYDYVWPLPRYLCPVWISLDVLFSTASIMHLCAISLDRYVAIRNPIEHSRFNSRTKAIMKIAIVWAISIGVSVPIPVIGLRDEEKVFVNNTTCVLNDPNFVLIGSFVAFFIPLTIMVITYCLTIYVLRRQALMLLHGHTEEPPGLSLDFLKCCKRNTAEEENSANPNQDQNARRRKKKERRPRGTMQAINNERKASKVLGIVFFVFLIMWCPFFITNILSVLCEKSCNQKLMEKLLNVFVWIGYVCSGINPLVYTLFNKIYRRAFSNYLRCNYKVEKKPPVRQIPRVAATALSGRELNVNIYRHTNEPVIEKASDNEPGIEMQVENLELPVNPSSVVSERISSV

Experiment [3] has as its target T2, 5-hydroxytryptamine receptor 2C (Rattus norvegicus, UniProt P08909).
T2 sequence (P08909 whole entry): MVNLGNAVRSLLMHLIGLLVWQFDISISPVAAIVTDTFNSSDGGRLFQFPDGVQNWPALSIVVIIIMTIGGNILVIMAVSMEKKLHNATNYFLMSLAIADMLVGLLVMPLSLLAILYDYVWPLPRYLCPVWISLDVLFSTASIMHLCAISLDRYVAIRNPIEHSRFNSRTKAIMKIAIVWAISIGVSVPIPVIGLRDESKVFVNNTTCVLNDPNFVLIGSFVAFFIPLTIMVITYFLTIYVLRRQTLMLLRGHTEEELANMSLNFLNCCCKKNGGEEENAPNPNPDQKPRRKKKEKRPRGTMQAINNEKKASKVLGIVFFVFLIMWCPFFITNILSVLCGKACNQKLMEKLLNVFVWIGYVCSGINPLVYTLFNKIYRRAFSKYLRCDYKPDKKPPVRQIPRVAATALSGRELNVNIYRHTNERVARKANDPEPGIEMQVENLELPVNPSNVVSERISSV

The target of experiment [4] is 5-hydroxytryptamine receptor 2B (Rattus norvegicus, UniProt P30994).

Several values for one entry are separate records, joined by “and”; a condition that tells them apart may be missing. Identical values can stand only once. Where only a bound is given, the exact number is not on record here.

Broadly, the Ki is a dissociation constant, usually derived from enzyme kinetics or from competition with a known ligand.

5-hydroxytryptamine receptor 2B (Homo sapiens, UniProt P41595), sequence (P41595 whole entry): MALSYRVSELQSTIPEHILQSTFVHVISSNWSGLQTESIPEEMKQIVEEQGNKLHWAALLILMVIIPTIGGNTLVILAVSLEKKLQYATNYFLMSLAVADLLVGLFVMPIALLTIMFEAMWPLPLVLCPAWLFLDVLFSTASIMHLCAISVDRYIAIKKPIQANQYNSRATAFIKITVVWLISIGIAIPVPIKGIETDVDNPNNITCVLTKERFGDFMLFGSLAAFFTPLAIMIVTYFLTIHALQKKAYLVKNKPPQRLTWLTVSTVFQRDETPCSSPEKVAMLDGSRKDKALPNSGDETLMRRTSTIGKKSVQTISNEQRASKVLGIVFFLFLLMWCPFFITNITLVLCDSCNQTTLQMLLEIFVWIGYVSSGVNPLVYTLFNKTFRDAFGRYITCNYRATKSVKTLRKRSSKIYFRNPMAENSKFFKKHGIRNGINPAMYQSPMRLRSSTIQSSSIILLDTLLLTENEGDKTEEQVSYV
5-hydroxytryptamine receptor 2B (Rattus norvegicus, UniProt P30994), sequence (P30994 whole entry): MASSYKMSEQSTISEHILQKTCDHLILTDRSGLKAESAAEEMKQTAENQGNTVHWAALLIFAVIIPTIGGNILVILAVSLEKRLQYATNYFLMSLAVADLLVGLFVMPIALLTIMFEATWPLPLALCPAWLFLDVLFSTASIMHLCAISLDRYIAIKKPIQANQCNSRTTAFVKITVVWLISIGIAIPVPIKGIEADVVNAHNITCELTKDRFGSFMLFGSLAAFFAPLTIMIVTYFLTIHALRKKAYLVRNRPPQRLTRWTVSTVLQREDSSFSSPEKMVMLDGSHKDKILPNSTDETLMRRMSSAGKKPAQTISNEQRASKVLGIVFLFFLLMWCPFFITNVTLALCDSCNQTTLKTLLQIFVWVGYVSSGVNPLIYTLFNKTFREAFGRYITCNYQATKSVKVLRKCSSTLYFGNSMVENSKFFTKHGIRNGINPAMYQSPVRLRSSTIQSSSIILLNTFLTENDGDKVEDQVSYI

As to `Cc1nc2sccn2c(=O)c1CCN1CCC(=C(c2ccc(F)cc2)c2ccc(F)cc2)CC1`, the Ki in experiment [1] came out at 5.01 nM; in experiment [2] it was 0.25 nM.

On to `CC[C@@H](CO)NC(=O)[C@@H]1C=C2c3cccc4c3c(cn4C)C[C@H]2N(C)C1`, for which the Ki in experiment [2] turned out to be 1.58 nM; in experiment [3], 1.99 nM.

On to `O=C(c1ccc(F)cc1)C1CCN(CCn2c(=O)[nH]c3ccccc3c2=O)CC1` [3-(2-{4-[(4-fluorophenyl)carbonyl]piperidin-1-yl}ethyl)-1,2,3,4-tetrahydroquinazoline-2,4-dione], for which the figures for the Ki in experiment [4] and in experiment [3] were 3980 nM and 63.1 nM, respectively.

As for `O=C(CCCN1CCC2(CC1)C(=O)NCN2c1ccccc1)c1ccc(F)cc1` [8-[4-(4-fluorophenyl)-4-oxidanylidene-butyl]-1-phenyl-1,3,8-triazaspiro[4.5]decan-4-one], the Ki was 1580 nM in experiment [1]; 501 nM and 1000 nM in experiment [2].

Consider `Cn1ccc2cc(NC(=O)Nc3cccnc3)ccc21` [SB 200646], for which the results for the Ki in experiment [1], in experiment [2] and in experiment [3] were 631 nM, 501 nM and 1000 nM, respectively.

For the compound `Clc1cccc(N2CCNCC2)c1` [mCPP], the Ki in experiment [4] stood at 25.1 nM; in experiment [3], 126 nM.

Take `COC(=O)[C@@H]1[C@H]2C[C@H]3c4[nH]c5ccccc5c4CCN3C[C@@H]2CC[C@@H]1O` [yohimbic acid methyl ester]: the Ki in experiment [4] was 50.1 nM; in experiment [3], above 10000 nM.
